The record followed here is ChEMBL document CHEMBL5291721, “A preclinical secondary pharmacology resource illuminates target-adverse drug reaction associations of marketed drugs” (Nat Commun, 2023).

One test has as its target Histamine H3 receptor (Homo sapiens, UniProt Q9Y5N1).
For another test, the target named is Histamine H2 receptor (Homo sapiens, UniProt P25021). Type of test: functional, cell-based.
For the next test, the target named is Mu-type opioid receptor (Homo sapiens, UniProt P35372).
Mu-type opioid receptor, sequence (P35372 whole entry): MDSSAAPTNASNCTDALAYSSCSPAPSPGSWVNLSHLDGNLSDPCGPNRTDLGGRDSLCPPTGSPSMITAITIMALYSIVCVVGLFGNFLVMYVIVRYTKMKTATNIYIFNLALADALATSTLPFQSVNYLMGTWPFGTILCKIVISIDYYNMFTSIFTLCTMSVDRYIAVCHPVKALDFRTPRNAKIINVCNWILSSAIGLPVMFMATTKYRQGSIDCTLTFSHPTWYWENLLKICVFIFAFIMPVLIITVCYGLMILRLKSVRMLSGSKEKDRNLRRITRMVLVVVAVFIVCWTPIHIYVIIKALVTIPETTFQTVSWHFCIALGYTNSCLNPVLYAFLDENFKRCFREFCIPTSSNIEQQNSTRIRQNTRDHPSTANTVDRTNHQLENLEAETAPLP
The next test addresses T1, Endothelin-1 receptor (Homo sapiens, UniProt P25101).
T1 sequence (P25101 whole entry): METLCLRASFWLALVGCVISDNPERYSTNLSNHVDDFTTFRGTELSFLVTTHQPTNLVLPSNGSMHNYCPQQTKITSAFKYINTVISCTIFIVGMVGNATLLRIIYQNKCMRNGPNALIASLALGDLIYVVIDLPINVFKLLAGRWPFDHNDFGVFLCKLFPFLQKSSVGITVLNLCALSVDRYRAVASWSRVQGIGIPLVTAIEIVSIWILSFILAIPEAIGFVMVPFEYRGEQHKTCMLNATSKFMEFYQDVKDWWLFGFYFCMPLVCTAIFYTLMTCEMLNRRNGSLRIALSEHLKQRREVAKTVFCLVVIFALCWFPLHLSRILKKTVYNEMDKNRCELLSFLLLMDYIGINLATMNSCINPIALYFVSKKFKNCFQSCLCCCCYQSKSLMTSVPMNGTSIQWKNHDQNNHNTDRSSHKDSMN

The target in test [1] is T2, Alpha-1A adrenergic receptor (Homo sapiens, UniProt P35348).
T2 sequence (P35348 whole entry): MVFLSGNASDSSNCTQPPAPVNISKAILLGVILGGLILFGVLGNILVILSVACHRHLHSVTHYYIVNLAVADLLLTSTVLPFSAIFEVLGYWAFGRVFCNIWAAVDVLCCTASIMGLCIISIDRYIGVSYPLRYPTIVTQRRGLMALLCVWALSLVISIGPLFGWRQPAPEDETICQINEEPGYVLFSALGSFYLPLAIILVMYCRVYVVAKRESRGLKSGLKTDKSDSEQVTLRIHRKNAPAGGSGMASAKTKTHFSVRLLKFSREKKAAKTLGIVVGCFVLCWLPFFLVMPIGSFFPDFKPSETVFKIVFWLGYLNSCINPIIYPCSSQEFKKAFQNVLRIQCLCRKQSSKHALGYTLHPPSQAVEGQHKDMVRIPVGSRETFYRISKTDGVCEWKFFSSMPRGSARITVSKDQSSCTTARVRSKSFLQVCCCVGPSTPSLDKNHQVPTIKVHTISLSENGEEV
Type of test: functional, cell-based.

Test [2] addresses Sodium-dependent noradrenaline transporter (Homo sapiens, UniProt P23975).
In another test the target is T3, B2 bradykinin receptor (Homo sapiens, UniProt P30411).
T3 sequence (P30411 whole entry): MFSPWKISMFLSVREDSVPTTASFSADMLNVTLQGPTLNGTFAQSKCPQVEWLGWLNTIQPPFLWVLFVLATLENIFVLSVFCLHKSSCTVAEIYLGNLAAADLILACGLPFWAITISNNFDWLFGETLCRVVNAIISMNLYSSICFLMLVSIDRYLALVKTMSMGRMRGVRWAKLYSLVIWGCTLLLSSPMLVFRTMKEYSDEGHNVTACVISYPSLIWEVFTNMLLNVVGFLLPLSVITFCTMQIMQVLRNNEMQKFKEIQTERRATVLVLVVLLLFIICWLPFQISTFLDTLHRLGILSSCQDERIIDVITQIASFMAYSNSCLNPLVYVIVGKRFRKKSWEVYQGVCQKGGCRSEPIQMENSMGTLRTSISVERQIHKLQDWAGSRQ

Test [3] deals with T4, 5-hydroxytryptamine receptor 2C (Homo sapiens, UniProt P28335).
T4 sequence (P28335 whole entry): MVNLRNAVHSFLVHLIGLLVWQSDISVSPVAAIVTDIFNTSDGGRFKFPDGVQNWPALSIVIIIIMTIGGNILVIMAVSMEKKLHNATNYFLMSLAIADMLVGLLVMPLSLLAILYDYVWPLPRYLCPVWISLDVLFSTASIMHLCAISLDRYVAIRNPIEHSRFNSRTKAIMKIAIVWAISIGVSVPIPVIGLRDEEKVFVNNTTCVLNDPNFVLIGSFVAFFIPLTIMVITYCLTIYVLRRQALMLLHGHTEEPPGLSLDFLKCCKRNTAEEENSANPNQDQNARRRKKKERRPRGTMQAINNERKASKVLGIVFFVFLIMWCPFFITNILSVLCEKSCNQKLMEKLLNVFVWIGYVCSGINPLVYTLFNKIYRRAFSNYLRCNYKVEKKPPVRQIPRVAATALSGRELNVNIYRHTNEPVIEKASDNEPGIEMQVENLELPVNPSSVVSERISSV

Test [4] concerns the target T5, Muscarinic acetylcholine receptor M2 (Homo sapiens, UniProt P08172).
T5 sequence (P08172 whole entry): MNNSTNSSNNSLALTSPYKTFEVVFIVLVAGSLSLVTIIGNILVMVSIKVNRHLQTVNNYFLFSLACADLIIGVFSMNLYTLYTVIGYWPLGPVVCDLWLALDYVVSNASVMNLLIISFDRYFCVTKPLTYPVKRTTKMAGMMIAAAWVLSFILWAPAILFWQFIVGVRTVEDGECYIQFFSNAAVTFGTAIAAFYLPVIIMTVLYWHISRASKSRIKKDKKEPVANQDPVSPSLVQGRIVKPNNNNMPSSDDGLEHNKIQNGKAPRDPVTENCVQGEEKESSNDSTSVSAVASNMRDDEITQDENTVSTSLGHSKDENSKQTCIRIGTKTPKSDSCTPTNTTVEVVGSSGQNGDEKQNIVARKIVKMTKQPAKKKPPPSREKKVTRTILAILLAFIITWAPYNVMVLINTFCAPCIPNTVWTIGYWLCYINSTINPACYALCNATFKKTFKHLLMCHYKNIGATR
Format: functional, cell-based.

Test [5] addresses Delta-type opioid receptor (Homo sapiens, UniProt P41143).

Bounds are passed on as bounds.
Further: assay procedure not described here.

Delta-type opioid receptor, sequence (P41143 whole entry): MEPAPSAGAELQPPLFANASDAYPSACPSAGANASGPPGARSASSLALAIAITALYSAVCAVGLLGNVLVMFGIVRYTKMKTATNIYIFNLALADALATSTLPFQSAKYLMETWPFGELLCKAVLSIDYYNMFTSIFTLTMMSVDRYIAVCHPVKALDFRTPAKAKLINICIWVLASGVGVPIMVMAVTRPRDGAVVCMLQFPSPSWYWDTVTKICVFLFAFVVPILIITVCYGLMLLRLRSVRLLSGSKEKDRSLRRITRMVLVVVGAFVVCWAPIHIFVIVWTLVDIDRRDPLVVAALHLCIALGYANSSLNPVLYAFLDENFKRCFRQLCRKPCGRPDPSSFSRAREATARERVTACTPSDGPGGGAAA
Sodium-dependent noradrenaline transporter, sequence (P23975 whole entry): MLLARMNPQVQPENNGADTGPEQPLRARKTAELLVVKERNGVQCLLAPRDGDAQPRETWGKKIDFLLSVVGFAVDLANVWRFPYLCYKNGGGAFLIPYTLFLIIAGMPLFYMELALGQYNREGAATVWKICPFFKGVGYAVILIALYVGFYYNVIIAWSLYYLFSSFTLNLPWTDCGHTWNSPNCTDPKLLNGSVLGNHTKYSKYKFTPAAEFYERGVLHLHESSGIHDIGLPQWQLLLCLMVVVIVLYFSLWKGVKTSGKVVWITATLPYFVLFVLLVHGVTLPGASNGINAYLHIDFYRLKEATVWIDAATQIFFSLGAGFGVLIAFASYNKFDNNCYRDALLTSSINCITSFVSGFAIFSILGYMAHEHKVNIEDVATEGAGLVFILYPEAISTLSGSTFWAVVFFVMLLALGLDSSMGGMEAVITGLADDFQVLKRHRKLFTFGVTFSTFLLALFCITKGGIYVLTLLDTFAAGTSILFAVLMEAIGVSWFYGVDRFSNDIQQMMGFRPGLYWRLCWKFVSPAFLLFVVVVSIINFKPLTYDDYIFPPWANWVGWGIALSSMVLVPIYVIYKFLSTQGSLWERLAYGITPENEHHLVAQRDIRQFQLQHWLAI
Histamine H2 receptor, sequence (P25021 whole entry): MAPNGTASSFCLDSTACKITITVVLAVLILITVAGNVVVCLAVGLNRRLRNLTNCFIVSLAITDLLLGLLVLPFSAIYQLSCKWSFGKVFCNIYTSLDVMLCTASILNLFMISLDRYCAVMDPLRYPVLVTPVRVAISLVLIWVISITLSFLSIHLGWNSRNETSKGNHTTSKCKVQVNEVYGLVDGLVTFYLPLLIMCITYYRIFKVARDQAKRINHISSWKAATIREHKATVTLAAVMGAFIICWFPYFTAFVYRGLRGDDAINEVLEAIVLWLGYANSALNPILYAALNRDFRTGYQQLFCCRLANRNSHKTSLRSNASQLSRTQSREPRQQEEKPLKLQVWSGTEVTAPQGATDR
Histamine H3 receptor, sequence (Q9Y5N1 whole entry): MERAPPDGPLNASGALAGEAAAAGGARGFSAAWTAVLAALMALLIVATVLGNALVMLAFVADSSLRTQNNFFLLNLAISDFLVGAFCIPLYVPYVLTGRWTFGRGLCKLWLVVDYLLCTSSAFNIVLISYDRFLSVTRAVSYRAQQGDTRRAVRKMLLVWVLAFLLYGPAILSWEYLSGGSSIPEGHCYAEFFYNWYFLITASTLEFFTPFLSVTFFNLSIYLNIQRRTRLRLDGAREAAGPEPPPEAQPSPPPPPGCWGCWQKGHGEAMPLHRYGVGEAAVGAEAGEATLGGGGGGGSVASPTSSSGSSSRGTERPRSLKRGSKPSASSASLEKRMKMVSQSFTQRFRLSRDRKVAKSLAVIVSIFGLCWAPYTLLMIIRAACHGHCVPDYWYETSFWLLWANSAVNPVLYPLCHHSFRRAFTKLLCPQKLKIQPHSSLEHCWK

For orientation: AC50 means the midpoint of the concentration-response curve, whichever way the signal moves. The low end stands for greater potency, the high end for weaker potency. In the case of `CC1=C(CC(=O)O)c2cc(F)ccc2/C1=C\c1ccc([S+](C)[O-])cc1` (centres undefined), the AC50 was > 10 µM on Histamine H3 receptor; > 10 µM on Histamine H2 receptor; > 30 µM on Mu-type opioid receptor; > 30 µM on Endothelin-1 receptor; > 30 µM in test [1]; > 30 µM in test [2]. The half-maximal activity concentration (AC50) at B2 bradykinin receptor was > 30 µM; in test [3], > 30 µM; in test [4], > 10 µM; in test [5], > 30 µM.

`O=C(O[C@H]1C[N+]2(CCCOc3ccccc3)CCC1CC2)C(O)(c1cccs1)c1cccs1` [ACLIDINIUM BROMIDE]: the AC50 at Histamine H3 receptor was > 10 µM; at Mu-type opioid receptor it was > 30 µM; at Endothelin-1 receptor, > 30 µM; in [2], > 10 µM; on B2 bradykinin receptor it was > 30 µM; in test [3], > 30 µM. Further, the AC50 in test [5] is > 30 µM.

In the case of `Cc1nnc2n1-c1ccc(Cl)cc1C(c1ccccc1)=NC2` [ALPRAZOLAM], the AC50 at Histamine H3 receptor is > 10 µM; at Histamine H2 receptor, > 10 µM; on Mu-type opioid receptor, > 30 µM; on Endothelin-1 receptor, > 30 µM; in [1], > 30 µM; in [2], > 10 µM. Besides, the concentration at half-maximal activity (AC50) at B2 bradykinin receptor was > 30 µM; in test [3], > 30 µM; in test [4] it was > 10 µM; in test [5], > 30 µM.

With `COc1ccc(-n2nc(C(N)=O)c3c2C(=O)N(c2ccc(N4CCCCC4=O)cc2)CC3)cc1` [APIXABAN], the AC50 (at Histamine H3 receptor; on Histamine H2 receptor; at Mu-type opioid receptor; on Endothelin-1 receptor; in test [1]; in test [2]) was > 30 µM in each case. Also, the AC50 (on B2 bradykinin receptor; in test [3]; in test [4]; in test [5]) was > 30 µM in each case.

On to `CCN(CC)CCCN(c1ccccc1)C1Cc2ccccc2C1` [APRINDINE], for which the AC50 is 18 µM at Histamine H3 receptor; > 30 µM on Histamine H2 receptor; 19 µM at Mu-type opioid receptor; > 30 µM at Endothelin-1 receptor; > 30 µM in [1]; 2.3 µM in [2]. In addition, the AC50 is > 30 µM at B2 bradykinin receptor, 8.5 µM in test [3], > 30 µM in [4] and > 30 µM in test [5].

For `CC(NC(C)(C)C)C(=O)c1cccc(Cl)c1` (centres undefined) [BUPROPION], the AC50 was > 10 µM on Histamine H3 receptor; > 10 µM on Histamine H2 receptor; > 10 µM at Mu-type opioid receptor; > 30 µM on Endothelin-1 receptor; > 30 µM in [1]; > 30 µM at B2 bradykinin receptor. For the same compound, the values for the AC50 in [3], in test [4] and in test [5] were > 30 µM, > 10 µM and > 10 µM, respectively.

On to `COc1ccc(C(Cl)=C(c2ccc(OC)cc2)c2ccc(OC)cc2)cc1` [CHLOROTRIANISENE], for which the AC50 (at Histamine H3 receptor; at Histamine H2 receptor; at Mu-type opioid receptor; at Endothelin-1 receptor; in [1]; in test [2]) was > 30 µM throughout. Also, the AC50 (at B2 bradykinin receptor; in test [3]; in test [4]; in test [5]) was > 30 µM in each case.

For `Oc1cc(O)c2c(c1)O[C@H](c1ccc(O)c(O)c1)[C@@H](O)C2` [CIANIDANOL], the AC50 was > 10 µM on Histamine H3 receptor; > 10 µM at Histamine H2 receptor; > 30 µM at Mu-type opioid receptor; > 30 µM at Endothelin-1 receptor; > 30 µM in test [1]; > 30 µM in test [2]. For the same compound, the AC50 on B2 bradykinin receptor was > 30 µM; in [3] it was > 30 µM; in [4] it was > 10 µM; in test [5] it was > 30 µM.

Regarding `O=C1CN=C(c2ccccc2Cl)c2cc([N+](=O)[O-])ccc2N1` [CLONAZEPAM], the AC50 at Histamine H3 receptor was > 10 µM; at Histamine H2 receptor, > 10 µM; at Mu-type opioid receptor, > 30 µM; at Endothelin-1 receptor, > 30 µM; in test [1], > 30 µM; in test [2] it was > 10 µM. Further, the AC50 at B2 bradykinin receptor was > 30 µM; in [3] it was > 30 µM; in test [4], > 10 µM; in test [5] it was > 30 µM.

Take `CCCCCCOC(=O)NC(=N)c1ccc(NCc2nc3cc(C(=O)N(CCC(=O)OCC)c4ccccn4)ccc3n2C)cc1` [DABIGATRAN ETEXILATE]: the AC50 was > 30 µM on Histamine H3 receptor; > 30 µM on Histamine H2 receptor; > 30 µM on Mu-type opioid receptor; > 30 µM on Endothelin-1 receptor; > 30 µM in test [1]; 6.3 µM in test [2]. The AC50 (at B2 bradykinin receptor; in [3]; in test [4]; in test [5]) was > 30 µM in each case.

As to `CCN(CC)C(C)C(=O)c1ccccc1` (centres undefined) [DIETHYLPROPION], the AC50 is > 10 µM on Histamine H3 receptor; > 10 µM on Histamine H2 receptor; > 30 µM at Mu-type opioid receptor; > 30 µM at Endothelin-1 receptor; > 30 µM in test [1]; > 30 µM in test [2]. For the same compound, the AC50 on B2 bradykinin receptor is > 30 µM; in test [3], > 30 µM; in test [4], > 10 µM; in test [5] it was > 30 µM.

`Cc1ccc(-c2ncc(Cl)cc2-c2ccc(S(C)(=O)=O)cc2)cn1` [ETORICOXIB]: the AC50 at Histamine H3 receptor is > 10 µM; at Histamine H2 receptor, > 10 µM; at Mu-type opioid receptor, > 10 µM; on Endothelin-1 receptor, > 30 µM; in test [1], > 30 µM; in [2], > 10 µM. Also, the AC50 is > 30 µM at B2 bradykinin receptor, > 10 µM in test [3], > 10 µM in test [4] and > 10 µM in test [5].

Take `CN1C2CCCC1CC(NC(=O)c1nn(C)c3ccccc13)C2` (centres undefined) [GRANISETRON]: the concentration at half-maximal activity (AC50) is > 10 µM on Histamine H3 receptor; > 10 µM on Histamine H2 receptor; > 10 µM on Mu-type opioid receptor; > 30 µM at Endothelin-1 receptor; > 30 µM in test [1]; > 10 µM in [2]. Moreover, the AC50 is > 30 µM at B2 bradykinin receptor, > 10 µM in [4] and > 10 µM in test [5].

On to `CCC(NC(C)C)C(O)c1ccc(O)c(O)c1` (centres undefined) [ISOETHARINE], for which the AC50 (at Histamine H3 receptor; at Histamine H2 receptor; on Mu-type opioid receptor; on Endothelin-1 receptor; in test [2]; at B2 bradykinin receptor) was > 30 µM in each case. Besides, the AC50 in [3], in test [4] and in [5] was > 30 µM each time.
